Source: article PMC12977469, “Ligand binding drives proteolysis of the SmcR master transcription factor and controls quorum sensing-state transitions in Vibrio species” (mBio, 2026)

Molecular target: T1, SmcR (Vibrio vulnificus, UniProt Q9L8G8)
T1 construct: full-length, His-tagged SmcR (homodimer); residues 1–15 not modeled in the crystal structure
Test: X-ray crystal structure ([…] Å) and isothermal titration calorimetry with purified protein; SAXS
Assay type: binding

T1 sequence (Q9L8G8 entry or part of it): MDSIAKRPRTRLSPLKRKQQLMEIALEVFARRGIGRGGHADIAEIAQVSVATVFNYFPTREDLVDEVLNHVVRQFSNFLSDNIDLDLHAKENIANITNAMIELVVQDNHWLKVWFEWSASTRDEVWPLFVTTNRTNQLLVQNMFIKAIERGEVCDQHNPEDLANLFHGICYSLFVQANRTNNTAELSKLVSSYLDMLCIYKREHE

Q: Which Kd does the source give for `O=S(=O)(c1cccs1)n1ccc(-c2ccccc2)n1` [PTSP, 3-phenyl-1-(thiophen-2-ylsulfonyl)-1H-pyrazole] here?
A: ~1000 nM
